# ChEMBL document CHEMBL4732171 (J Med Chem, 2021)
# Calls of active or inactive are those of the source. The rule behind the calls is not given here.
# What was measured:
# [1] = target: Carbonic anhydrase 9 (Homo sapiens) (UniProt Q16790); settings: UFH-001, dose 50.0 nM
# [2] = target: Carbonic anhydrase 9 (Homo sapiens) (UniProt Q16790); settings: T47D, dose 50.0 nM
# [3] = target: Carbonic anhydrase 2 (Homo sapiens) (UniProt P00918); test: Binding affinity to human full length CAH2 expressed in Escherichia coli BL21 (DE3) assessed as binding concentration causing thermal stabilization by Sypro-Orange dye based DSF assay
# Carbonic anhydrase 3 = Carbonic anhydrase 3 (Homo sapiens, UniProt P07451)
# Carbonic anhydrase 3, sequence (P07451 whole entry): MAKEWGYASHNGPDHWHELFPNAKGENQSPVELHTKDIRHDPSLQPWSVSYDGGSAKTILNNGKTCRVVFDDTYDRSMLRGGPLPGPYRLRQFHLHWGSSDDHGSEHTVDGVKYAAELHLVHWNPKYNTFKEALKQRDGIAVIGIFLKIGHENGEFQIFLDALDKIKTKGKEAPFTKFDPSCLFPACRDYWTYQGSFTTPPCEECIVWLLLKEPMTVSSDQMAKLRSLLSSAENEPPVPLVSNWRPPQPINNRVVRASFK
Structure (SMILES),inhibition [1],inhibition [2],Activity [3] [mM],Ki (Carbonic anhydrase 3) [µM]
CCOc1ccc2nc(S(N)(=O)=O)sc2c1,Active,Active,,
NS(=O)(=O)c1ccc(N2CCN(c3ccc(F)cc3F)C2=O)cc1,,,0.1,> 10
